Source: US20240246964A1 (Arbutus Biopharma Corporation, priority 2021, published 2024)

Target: human PD-L1 (Homo sapiens (Human), UniProt Q9NZQ7)
Test: T cell activation luciferase reporter cell culture system (T Cell Activation Assay)
Type: cell-based
Settings: luciferase reporter assay; PD-L1 aAPC/CHO-K1 cells with PD-1 effector Jurkat T cells

Sequence of human PD-L1 (Q9NZQ7 19-290): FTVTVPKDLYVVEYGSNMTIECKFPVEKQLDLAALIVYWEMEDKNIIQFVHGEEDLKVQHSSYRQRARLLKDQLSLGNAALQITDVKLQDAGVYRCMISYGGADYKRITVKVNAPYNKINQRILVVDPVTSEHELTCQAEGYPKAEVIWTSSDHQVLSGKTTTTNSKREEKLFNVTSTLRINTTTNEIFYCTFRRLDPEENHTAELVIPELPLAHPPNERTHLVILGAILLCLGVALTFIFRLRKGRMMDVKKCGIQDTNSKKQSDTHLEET

Q: Which EC50 does the source give for `COc1cc(-c2nccc(-c3cccc(-c4ccc(CN5CC6(CNC(=O)C6)C5)c(OC)n4)c3Cl)c2Cl)cc2c1CN(CCCF)CC2` [Example 250, 2-((6-(2-Chloro-3-(3-chloro-2-(2-(3-fluoropropyl)-8-methoxy-1,2,3,4-tetrahydroisoquinolin-6-yl)pyridin-4-yl)phenyl)-2-methoxypyridin-3-yl)methyl)-2,6-diazaspiro[3.4]octan-7-one] here?
A: The EC50 was 31 nM.

Q: How did the EC50 turn out when `COc1nc(-c2cccc(-c3ccnc(-c4ccc5c(CNC6CCN(C(C)=O)CC6)cn(C)c5c4)c3Cl)c2Cl)ccc1CNC1CCN(C(C)=O)CC1` [Cmpd 277, 1-(4-(((6-(3-(2-(3-(((1-acetylpiperidin-4-yl)amino)methyl)-1-methyl-1H-indol-6-yl)-3-chloropyridin-4-yl)-2-chlorophenyl)-2-methoxypyridin-3-yl)methyl)amino)piperidin-1-yl)ethan-1-one] was run?
A: Its EC50 is 170 nM.

Q: How did the EC50 turn out when `COc1cc(-c2nccc(-c3cccc(-c4ccc(CNC5CCN(C(C)=O)CC5)c(OC)n4)c3Cl)c2Cl)ccc1CN1CC2(CC(O)C2)C1` [Example 361, 1-(4-(((6-(2-Chloro-3-(3-chloro-2-(4-((6-hydroxy-2-azaspiro[3.3]heptan-2-yl)methyl)-3-methoxyphenyl)pyridin-4-yl)phenyl)-2-methoxypyridin-3-yl)methyl)amino)piperidin-1-yl)ethan-1-one] was run?
A: Its EC50 is 40.5 nM.

Q: How did the EC50 turn out when `COc1cc(-c2nccc(-c3cccc(NC(=O)c4ccc(CNC[C@@H]5CCC(=O)N5)cn4)c3C)c2Cl)ccc1CNC[C@@H]1CCC(=O)N1` [Example 647, N-(3-(3-Chloro-2-(3-methoxy-4-(((((S)-5-oxopyrrolidin-2-yl)methyl)amino)methyl)phenyl)pyridin-4-yl)-2-methylphenyl)-5-(((((S)-5-oxopyrrolidin-2-yl)methyl)amino)methyl)picolinamide] was run?
A: The EC50 was 65.3 nM.

Q: `COc1nc(-c2cccc(-c3ccnc(-c4cc5c(=O)n(C)c(CNC6CC(C)(O)C6)nn5c4)c3Cl)c2Cl)ccc1CNC[C@@H]1CCC(=O)N1` (stereo partly drawn) [Cmpd 102, (S)-6-(3-chloro-4-(2-chloro-3-(6-methoxy-5-((((5-oxopyrrolidin-2-yl)methyl)amino)methyl)pyridin-2-yl)phenyl)pyridin-2-yl)-2-(((3-hydroxy-3-methylcyclobutyl)amino)methyl)-3-methylpyrrolo[2,1-f][1,2,4]triazin-4(3H)-one] was tested. Which EC50 did it give?
A: The EC50 was 342 nM.

Q: How did the EC50 turn out when `COCC(=O)N1CCC(NCc2ccc(-c3cccc(-c4ccnc(-c5ccc(CN6CC7(C6)CN(C(C)=O)C7)c(OC)c5)c4Cl)c3Cl)nc2OC)CC1` [Example 491, 1-(4-(((6-(3-(2-(4-((6-Acetyl-2,6-diazaspiro[3.3]heptan-2-yl)methyl)-3-methoxyphenyl)-3-chloropyridin-4-yl)-2-chlorophenyl)-2-methoxypyridin-3-yl)methyl)amino)piperidin-1-yl)-2-methoxyethan-1-one] was run?
A: Its EC50 is 31.8 nM.

Q: `COc1cc(-c2nccc(-c3cccc(-c4ccc(CNC[C@@H]5CCC(=O)N5)c(OC)n4)c3Cl)c2Cl)cc2c1CN(CCC1(O)CC1)CC2` [Cmpd 74, (S)-5-((((6-(2-chloro-3-(3-chloro-2-(2-(2-(1-hydroxycyclopropyl)ethyl)-8-methoxy-1,2,3,4-tetrahydroisoquinolin-6-yl)pyridin-4-yl)phenyl)-2-methoxypyridin-3-yl)methyl)amino)methyl)pyrrolidin-2-one] was tested. Which EC50 did it give?
A: Its EC50 is 70 nM.

Q: How did the EC50 turn out when `COc1cc(-c2nccc(-c3cccc(-c4ccc(CNC5CCN(C(C)=O)CC5)c(OC)n4)c3Cl)c2Cl)ccc1CNC1CCOCC1` [Example 392, 1-(4-(((6-(2-chloro-3-(3-chloro-2-(3-methoxy-4-(((tetrahydro-2H-pyran-4-yl)amino)methyl)phenyl)pyridin-4-yl)phenyl)-2-methoxypyridin-3-yl)methyl)amino)piperidin-1-yl)ethan-1-one] was run?
A: Its EC50 is 17.6 nM.
